Literature values, collected in patent US20140357595A1, “METHODS OF PREVENTING AND TREATING RECURRENCE OF A HEPATITIS C VIRUS INFECTION IN A SUBJECT AFTER THE SUBJECT HAS RECEIVED A LIVER TRANSPLANT” (priority 2013, published 2014).

What was measured:
[1] = target: T1, HCV NS5B RNA dependent RNA polymerase (Hepatitis C virus genotype 1a, UniProt P27958)
T1 construct: the HCV NS5B RNA dependent RNA polymerase

[2] = clinical trials

T1 sequence (P27958 2421-3011): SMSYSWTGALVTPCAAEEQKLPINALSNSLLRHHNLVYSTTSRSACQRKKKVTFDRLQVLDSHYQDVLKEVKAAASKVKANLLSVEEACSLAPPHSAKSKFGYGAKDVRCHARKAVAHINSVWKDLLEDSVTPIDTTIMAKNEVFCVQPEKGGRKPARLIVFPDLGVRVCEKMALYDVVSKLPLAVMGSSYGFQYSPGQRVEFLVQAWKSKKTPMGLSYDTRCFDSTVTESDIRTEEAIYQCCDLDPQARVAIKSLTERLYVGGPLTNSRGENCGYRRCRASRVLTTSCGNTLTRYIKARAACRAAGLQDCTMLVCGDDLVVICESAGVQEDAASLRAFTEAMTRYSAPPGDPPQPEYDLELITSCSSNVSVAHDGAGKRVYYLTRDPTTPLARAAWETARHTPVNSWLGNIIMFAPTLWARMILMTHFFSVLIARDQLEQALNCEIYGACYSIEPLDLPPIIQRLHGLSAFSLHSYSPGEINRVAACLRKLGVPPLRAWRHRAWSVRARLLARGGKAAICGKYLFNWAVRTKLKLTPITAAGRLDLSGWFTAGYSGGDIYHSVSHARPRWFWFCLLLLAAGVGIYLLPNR

SMILES: C[C@@]1(F)[C@H](O)[C@@H](COP(=O)(O)OP(=O)(O)OP(=O)(O)O)O[C@H]1n1ccc(=O)[nH]c1=O [5′-triphosphate metabolite of Compound 1]
- inhibition of HCV replication mediated by the HCV NS5B RNA dependent RNA polymerase [1]: potent and selective inhibitor

SMILES: CC(C)OC(=O)[C@H](C)N[P@](=O)(OC[C@H]1O[C@@H](n2ccc(=O)[nH]c2=O)[C@](C)(F)[C@@H]1O)Oc1ccccc1 [Compound 1, (S)-isopropyl 2-(((S)-(((2R,3R,4R,5R)-5-(2,4-dioxo-3,4-dihydropyrimidin-1(2H)-yl)-4-fluoro-3-hydroxy-4-methyltetrahydrofuran-2-yl)methoxy)(phenoxy)phosphoryl)amino)propanoate]
- tolerability [2]: well-tolerated
